From patent US8591886B2, “Combination therapies employing GITR binding molecules” (GITR, Inc., priority 2007, dated 2013)

Tested on: CT26 cells
Assay: CT26 colon carcinoma flank tumor model, Gemzar and 2F8
Assay type: in vivo, Mice
Conditions: Kaplan-Meier; Gemzar 80 mg/kg Day 15; 2F8 alone 0.4 mg I.P. Days 15, 16 and 17; FIG. 2
Protocol: One group of control mice was untreated. The group of mice receiving Gemzar was treated with 80 mg/kg Gemzar on Day 15.
GraphPad Prism 4 software was used to plot Kaplan-Meir survival curves and to confirm the median survival times for the groups.

For `Nc1ccn([C@@H]2O[C@H](CO)[C@@H](O)C2(F)F)c(=O)n1` [Gemzar, gemcitabine], the median survival was 31 days.
